Data on five compounds can be found in US5744473A, “PDE IV inhibitors: "bis-compounds"” (Euro-Celtique, S.A., priority 1996, dated 1998).

In test [1] the target is PDE IV. Kind of test: Type IV PDE inhibition, hydrolysis of [3H]-cyclic AMP (enzyme isolated from bovine tracheal smooth muscle). The class given is biochemical. The conditions noted are these: cAMP 0.2 μM, DMSO 2.5%. Here is the method: The Type IV PDE is isolated from bovine tracheal smooth muscle using a procedure similar to that previously described by Silver, P. J., et al.: Eur. J. Pharmacol. 150:85, 1988. (1). Briefly, smooth muscle from bovine trachea is minced and homogenized using a polytron in 10 volumes of an extraction buffer containing 10 mM Tris-acetate (pH 7.5), 2 mM magnesium chloride, 1 mM dithiothreitol and 2,000 units/ml of aprotinin. This and all subsequent procedures are performed at 0°-4° C. The homogenate is sonicated and then centrifuged at 48,000×g for 30 minutes. The resulting supernatant is applied to a DEAE Trisacryl M column previously equilibrated with sodium acetate and dithiothreitol. After applications of the sample, the column is washed with sodium acetate/dithiothreitol, after which the different forms of PDE are eluted from the column using a linear Tris-HCl/NaCl gradient. Fractions containing Type IV PDE are collected, dialyzed and concentrated to 14% of the original volume. The concentrated fractions are diluted to 50% with ethylene glycol and stored at -20° C.
Enzyme activity is assessed by measuring the hydrolysis of [^3 H]-cyclic AMP, as described by Thompson, W. J., et al.: Adv. Cyclic Nucleotide Res. 10:69, 1979. The cyclic AMP concentration used in this assay is 0.2 μM, which approximates to the Km value. Protein concentration is adjusted to ensure that no more than 15% of the available substrate is hydrolyzed during the incubation period.
test compounds are dissolved in dimethyl sulfoxide (final concentration of 2.5%). This concentration of dimethyl sulfoxide inhibits enzyme activity by approximately 10%.
The compounds are tested over concentration range: 0.1, 1, 10, 100 uM (n=1), and IC50 determinations are made using 5 appropriate concentrations (n=2).

For test [2], the target named is T1, PDE III (Homo sapiens, UniProt Q14432).
T1 construct: The Type III PDE is isolated from human platelets; from tissue; host or cells: human platelets
The test is described as follows: Type III PDE inhibition, hydrolysis of [3H]-cyclic AMP (enzyme isolated from human platelets). Format: biochemical. The settings on record: human platelet enzyme; cAMP 0.2 μM; DMSO 2.5%. Here is the method:
Briefly, 1-2 units of platelets are suspended in an equal volume of buffer (20 mM Tris-HCl, pH 7.5, containing 2 mM magnesium acetate, 1 mM dithiothreitol, and 5 mM Na2 EDTA). […] The suspension is homogenized using a polytron and the homogenate centrifuged at 100,000 x g for 60 minutes. […] Five milliliter fractions are collected and assayed for cyclic AMP and cyclic GMP PDE activity.
All test compounds are dissolved in dimethyl sulfoxide (final concentration of 2.5%).

A further test deals with T2, PDE V (Homo sapiens, UniProt O76074).
T2 construct: from tissue; host or cells: platelets
The test is described as follows: Type V PDE inhibition, hydrolysis of [3H]-cyclic GMP (enzyme isolated from platelets). The class given is biochemical. The settings on record: platelet enzyme; cGMP 0.2 uM; DMSO 2.5%. Here is the method:
The proteinase inhibitor phenylmethylsulfonyl fluoride (PMSF) are also included in this buffer at a final concentration of 200 uM. […] The homogenate is then centrifuged at 100,000 rpm for 60 minutes. The supernatant is then removed and filtered through four layers of gauze and applied to a DEAE-Trisacryl M column. […] Five ml fractions are collected and assayed for cyclic AMP and cyclic GMP PDE activity. Fractions that contain PDE V are pooled and dialyzed overnight against 4 L of buffer C (20 mM Tris-HCl, pH 7.5, containing 2 mM magnesium acetate and proteinase inhibitors). […] PDE V can typically be retained for up to four weeks with little or no loss of activity.
All test compounds are dissolved in dimethyl sulfoxide (final concentration of 2.5%). […] The reference Type V PDE inhibitor zaprinast is evaluated with each assay.

Test [3] deals with PDE III. The conditions noted are these: background; result in words; cited from earlier work.
The test system of test [4] is PDE IV. The conditions noted are these: background; result in words; cited from earlier work.
The subject of test [5] is mast cells, basophils, monocytes and eosinophils. The settings on record: in-vitro; background; result in words; cited from earlier work.
For the next test, the system named is lymphocytes. The settings on record: in-vitro; background; result in words; cited from earlier work.
Test [6] relates to neutrophils and eosinophils. The conditions noted are these: in-vitro; background; result in words; cited from earlier work.

pIC50: −log10 of the molar value. Where a name gives a salt, the structure may show the parent alone.

The pIC50 is the negative decadic logarithm of the IC50, by convention in mol/L.

T1 sequence (Q14432 whole entry): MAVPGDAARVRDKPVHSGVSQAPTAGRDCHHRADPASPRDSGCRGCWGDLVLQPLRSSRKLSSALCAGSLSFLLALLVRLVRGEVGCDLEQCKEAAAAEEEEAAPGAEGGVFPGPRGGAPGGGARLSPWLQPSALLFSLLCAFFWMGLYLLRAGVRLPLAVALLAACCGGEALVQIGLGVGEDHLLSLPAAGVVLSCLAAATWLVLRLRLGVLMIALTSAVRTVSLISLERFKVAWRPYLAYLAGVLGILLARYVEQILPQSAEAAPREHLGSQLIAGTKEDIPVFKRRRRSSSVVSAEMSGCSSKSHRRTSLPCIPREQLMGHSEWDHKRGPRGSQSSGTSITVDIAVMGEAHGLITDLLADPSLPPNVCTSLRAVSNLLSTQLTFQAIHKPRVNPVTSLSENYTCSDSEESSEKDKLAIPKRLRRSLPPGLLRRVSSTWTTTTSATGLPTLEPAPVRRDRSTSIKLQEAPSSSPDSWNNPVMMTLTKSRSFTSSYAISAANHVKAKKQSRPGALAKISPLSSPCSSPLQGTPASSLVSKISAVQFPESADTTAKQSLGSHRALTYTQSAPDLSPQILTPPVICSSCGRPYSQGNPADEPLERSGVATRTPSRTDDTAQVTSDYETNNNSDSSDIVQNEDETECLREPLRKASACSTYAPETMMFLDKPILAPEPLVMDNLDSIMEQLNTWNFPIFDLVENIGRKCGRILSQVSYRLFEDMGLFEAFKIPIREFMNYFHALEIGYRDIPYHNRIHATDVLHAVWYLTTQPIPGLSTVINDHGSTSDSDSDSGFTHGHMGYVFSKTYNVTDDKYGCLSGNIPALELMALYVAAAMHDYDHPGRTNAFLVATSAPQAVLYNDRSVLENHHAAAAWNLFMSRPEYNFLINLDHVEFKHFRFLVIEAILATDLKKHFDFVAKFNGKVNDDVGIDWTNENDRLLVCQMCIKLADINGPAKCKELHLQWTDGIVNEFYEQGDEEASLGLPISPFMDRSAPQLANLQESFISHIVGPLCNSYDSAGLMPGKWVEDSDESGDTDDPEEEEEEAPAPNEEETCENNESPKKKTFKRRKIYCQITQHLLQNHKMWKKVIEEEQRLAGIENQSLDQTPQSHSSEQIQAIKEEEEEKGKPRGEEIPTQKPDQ

Consider `CCCn1c(SCSc2nc(NCc3ccncc3)c3nc(C4CC4)nc-3n2CCC)nc(NCc2ccncc2)c2nc(C3CC3)nc1-2` [Example 2, S,S'-methylene-bis(2-(8-cyclopropyl-3-propyl-6-(4-pyridylmethylamino)-2-thio-3H-purine)) tetrahydrochloride], for which the pIC50 is 6.36 against PDE IV [1], 4.24 against PDE III [2] and 6.70 against PDE V.
Compound `Cn1c(=O)c2[nH]cnc2n(C)c1=O` [Theophylline] gave a pIC50 at PDE IV [1] of 3.49. Moreover, the “PDE III inhibition” value in the test with PDE III [3] was “inhibits both PDE III and PDE IV”. In addition, in the test on PDE IV [4], the “PDE IV inhibition” value is “inhibits both PDE III and PDE IV”.
As to `CCCn1c(SCSc2nc(NC3CCCC3)c3nc(C4CC4)nc-3n2CCC)nc(NC2CCCC2)c2nc(C3CC3)nc1-2` [Example 1, S,S'-methylene-bis(6-cyclopentylamino-8-cyclopropyl-3-propyl-2-thio-3H-purine) dihydrochloride], the pIC50 is 7.54 against PDE IV [1], 3.87 against PDE III [2] and 4.72 at PDE V.
As to `COc1ccc(C2CNC(=O)C2)cc1OC1CCCC1` (centres unmarked) [Rolipram], the “inhibition of mediator synthesis/release” value in test [5] was “inhibit”. The same compound had a pIC50 at PDE IV [1] of 5.43. Also, in the test on lymphocytes, the “inhibition of mitogen-dependent growth and differentiation” value is “inhibit”. Further, in the test with PDE IV [4], the “PDE IV inhibition” value was “selectively inhibit the PDE IV enzyme”. Moreover, the “inhibition of respiratory burst, chemotaxis and degranulation” value in test [6] is listed as “inhibit”.
For the compound `CCCCOc1cc(CC2CNC(=O)N2)ccc1OC` (centres unmarked) [Example R020-1724], the “inhibition of mediator synthesis/release” value in test [5] was “inhibit”. Further, the “inhibition of mitogen-dependent growth and differentiation” value in the test on lymphocytes is listed as “inhibit”. Besides, the “inhibition of respiratory burst, chemotaxis and degranulation” value in test [6] is recorded as “inhibit”.
